Laboratory results reported in patent US20170246166A1, “1,2-BENZOTHIAZOLE COMPOUNDS FOR THE TREATMENT OF KIDNEY DISORDERS” (priority 2014, published 2017).

Assays:
[1] = tested on: PKC; experiment: Cell-based assay of PKC inhibition (PKC substrate phosphorylation in THP-1 cells); conditions: human THP-1 cells, 1.5 h compound, then 20 nM PMA for 30 min; read-out: absolute IC50, PKC substrate phosphorylation
Description: The purpose of this assay is to test the inhibitory effects of a test compound on PKC in a cell-based system by measuring the level of PKC substrate phosphorylation.
Staurosporin may be used as a positive control. It is prepared in DMSO to make up a […] solution and then serially diluted in plain RPMI 1640 culture medium (10 μM-0.0005 μM) to obtain a ten-point dilution curve. Test compounds are prepared in the same manner.
THP-1 cells (human macrophage cell line) are obtained from ATCC (ATCC TIB-202 lot 4028542). The cells are cultured in 96-well plates coated with poly-d-lysine (Becton Dickinson) with seeding density of 4000 cells/well in RPMI 1640 culture medium (Gibco) with 1% fetal bovine serum (Gibco). […]
After the incubation, the cells are first fixed in the Prefer fixative (ANATECH LTD) for 30 min at room temperature. […] Plates are scanned with an ACUMEN EXPLORER™ Laser-scanning fluorescence microplate cytometer (TTP LABTECH LTD), with 488 nm laser excitation to detect emission fluorescence at 655 nm-705 nm (emission of DNA bound propidium iodide) for cell counting/well, and emission of 505 nm-530 nm fluorescence of antibody binding to phosphorylated PKC substrates in cells. The main assay output is a ratio of total fluorescence of phosphorylated PKC substrates to total cell number (ratio=total intensity/total cell number). […]

[2] = tested on: persons with type 2 diabetes and nephropathy; conditions: in combination with an ACE inhibitor, ARB, or both; cited from earlier work

Compound: CN(C)C[C@@H]1CCn2cc(c3ccccc32)C2=C(C(=O)NC2=O)c2cn(c3ccccc23)CCO1 [ruboxistaurin]
- effects on albuminuria and renal function [2]: favorable effects on albuminuria and renal function
